From patent US20040198809A1 (priority 2001, published 2004)

Assay: pharmacological and clinical studies (summary statements)
Type: in vivo
Settings: presence of R-citalopram
Text: This may be shown in functional in-vivo pharmacological models and studies of 5-HT-reuptake effect and or in behaviour models, for example depression models.

For `CN(C)CCC[C@]1(c2ccc(F)cc2)OCc2cc(C#N)ccc21` [R-citalopram], the “impact on the effect of escitalopram” value was “negative impact on the effect of escitalopram”.
